Data as given in ChEMBL document CHEMBL1201862, “PubChem BioAssay data set” (2004).
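Assay format: 96-well plates, 48-hour exposure. Here, GI50 denotes the concentration required for 50% inhibition of growth.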 Calls of active or inactive are those of the source. Rule as the data show it: active = GI50 up to about 1.1 µM and inactive = higher.

How the values were obtained:
Assay in all cases: inhibition of tumour cell growth, NCI panel, 48 h
A549 = tested on: A549
EKVX = tested on: EKVX
HL-60 = tested on: HL-60
IGROV-1 = tested on: IGROV-1
K562 = tested on: K562
KM12 = tested on: KM12
MOLT-4 = tested on: MOLT-4
NCI-H23 = tested on: NCI-H23
NCI-H460 = tested on: NCI-H460
OVCAR-4 = tested on: OVCAR-4
SF-295 = tested on: SF-295
SF-539 = tested on: SF-539
SK-MEL-28 = tested on: SK-MEL-28
SN12C = tested on: SN12C
SNB-19 = tested on: SNB-19
SNB-75 = tested on: SNB-75
SW-620 = tested on: SW-620
U-251 = tested on: U-251
UACC-257 = tested on: UACC-257
UO-31 = tested on: UO-31

Measured: GI50

C/C(=N\NS(=O)(=O)c1ccccc1)c1ccccc1
inactive: A549 > 100 µM | EKVX > 100 µM | HL-60 > 100 µM | IGROV-1 > 100 µM | K562 > 100 µM | KM12 > 100 µM | MOLT-4 > 100 µM | NCI-H23 > 100 µM | NCI-H460 > 100 µM | OVCAR-4 > 100 µM | SF-295 > 100 µM | SF-539 > 100 µM | SK-MEL-28 > 100 µM | SN12C > 100 µM | SNB-19 > 100 µM | SNB-75 > 100 µM | SW-620 > 100 µM | U-251 > 100 µM | UACC-257 > 100 µM | UO-31 > 100 µM

Cc1cn(C2CC(O)C(CO)C2C)c(=O)[nH]c1=O (stereo not given)
inactive: A549 > 100 µM | EKVX > 100 µM | HL-60 > 100 µM | IGROV-1 > 100 µM | K562 > 100 µM | KM12 > 100 µM | MOLT-4 > 100 µM | NCI-H23 > 100 µM | NCI-H460 > 100 µM | OVCAR-4 > 100 µM | SF-295 > 100 µM | SF-539 > 100 µM | SK-MEL-28 > 100 µM | SN12C > 100 µM | SNB-19 > 100 µM | SNB-75 > 100 µM | SW-620 > 100 µM | U-251 > 100 µM | UACC-257 > 100 µM | UO-31 > 100 µM

CCOC(=O)/C=C(\C)c1ccc(Cl)cc1
inactive: A549 > 100 µM | EKVX > 100 µM | HL-60 > 100 µM | IGROV-1 > 100 µM | K562 > 100 µM | KM12 > 100 µM | MOLT-4 > 100 µM | NCI-H23 > 100 µM | NCI-H460 > 100 µM | OVCAR-4 > 100 µM | SF-295 > 100 µM | SF-539 > 100 µM | SK-MEL-28 > 100 µM | SN12C > 100 µM | SNB-19 > 100 µM | SNB-75 > 100 µM | SW-620 > 100 µM | U-251 > 100 µM | UACC-257 > 100 µM | UO-31 > 100 µM

C=C1C[C@@H]2C[C@@H](C)CC(O)[C@]2(CCCN)C1O (stereo not given in full)
inactive: A549 > 100 µM | EKVX > 100 µM | HL-60 > 100 µM | IGROV-1 > 100 µM | K562 > 100 µM | KM12 > 100 µM | MOLT-4 > 100 µM | NCI-H23 > 100 µM | NCI-H460 > 100 µM | OVCAR-4 > 100 µM | SF-295 > 100 µM | SF-539 > 100 µM | SK-MEL-28 > 100 µM | SN12C > 100 µM | SNB-19 > 100 µM | SNB-75 > 100 µM | SW-620 > 100 µM | U-251 > 100 µM | UACC-257 > 100 µM | UO-31 > 100 µM

CCOC(=O)/C=C/c1c(C)[nH]c(=O)[nH]c1=O
inactive: A549 > 250 µM | EKVX > 250 µM | HL-60 > 250 µM | IGROV-1 > 250 µM | K562 > 250 µM | KM12 > 250 µM | MOLT-4 > 250 µM | NCI-H23 > 250 µM | NCI-H460 > 250 µM | OVCAR-4 > 158 µM | SF-295 > 250 µM | SF-539 > 250 µM | SK-MEL-28 > 250 µM | SN12C > 250 µM | SNB-19 > 250 µM | SNB-75 > 250 µM | SW-620 > 250 µM | U-251 > 250 µM | UACC-257 > 250 µM | UO-31 > 250 µM

O=C1CNc2cc(N3CCCCC3)ccc2N1
inactive: A549 > 100 µM | EKVX 21.2 µM | HL-60 > 100 µM | IGROV-1 13.9 µM | K562 > 100 µM | KM12 49.4 µM | MOLT-4 > 100 µM | NCI-H23 > 100 µM | NCI-H460 > 100 µM | OVCAR-4 > 100 µM | SF-295 > 100 µM | SF-539 > 100 µM | SK-MEL-28 > 100 µM | SN12C > 100 µM | SNB-19 > 100 µM | SNB-75 66.2 µM | SW-620 > 100 µM | U-251 > 100 µM | UACC-257 > 100 µM | UO-31 > 100 µM

O=C1C(=O)c2ccccc2C=C1[N+](=O)[O-]
inactive: A549 > 100 µM | EKVX 19.3 µM | HL-60 22.7 µM | IGROV-1 13.8 µM | K562 53.5 µM | KM12 70.3 µM | MOLT-4 29.3 µM | NCI-H23 34.2 µM | NCI-H460 30.2 µM | OVCAR-4 31.3 µM | SF-295 97.3 µM | SF-539 43.1 µM | SK-MEL-28 > 100 µM | SN12C 29.4 µM | SNB-19 > 100 µM | SNB-75 > 100 µM | SW-620 32.9 µM | U-251 40.1 µM | UACC-257 25.2 µM | UO-31 > 100 µM
